Measurements as given in paper PMC6882492, “Synthesis and biological evaluation of novel thienopyrimidine derivatives as diacylglycerol acyltransferase 1 (DGAT-1) inhibitors” (Journal of Enzyme Inhibition and Medicinal Chemistry, 2019).

Experiments:
[1] = Pharmacokinetic profile in ICR mice; conditions: mouse, in vivo
[2] = target: T1, human recombinant DGAT1 enzyme expressed in insect cells (SF9 cells) (Homo sapiens, UniProt O75907); assay: DGAT-1 inhibition assay (IC50), SF9 microsomes; type: biochemical; conditions: SF9 insect cells expressing human DGAT-1
T1 construct: made in house; host or cells: SF9 insect cells (microsomal membrane fraction)
T1 sequence (O75907 1-488): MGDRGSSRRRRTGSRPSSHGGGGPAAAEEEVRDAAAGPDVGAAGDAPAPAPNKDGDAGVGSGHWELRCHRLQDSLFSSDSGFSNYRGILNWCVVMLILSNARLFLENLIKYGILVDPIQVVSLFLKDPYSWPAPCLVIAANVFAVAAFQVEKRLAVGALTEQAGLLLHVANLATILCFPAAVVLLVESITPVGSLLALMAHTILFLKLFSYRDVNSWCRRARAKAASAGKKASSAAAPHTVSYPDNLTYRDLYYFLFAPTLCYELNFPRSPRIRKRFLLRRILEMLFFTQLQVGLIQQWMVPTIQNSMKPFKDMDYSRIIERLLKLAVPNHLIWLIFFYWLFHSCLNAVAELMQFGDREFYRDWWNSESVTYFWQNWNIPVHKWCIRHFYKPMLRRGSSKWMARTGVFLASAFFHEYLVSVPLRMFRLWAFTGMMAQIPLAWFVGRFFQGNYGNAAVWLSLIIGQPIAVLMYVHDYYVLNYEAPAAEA
Protocol: The activity of DGAT-1 inhibitors in vitro was evaluated by using a human recombinant DGAT1 enzyme expressed in insect cells (SF9 cells). SF9 cells were homogenised by washing them with DPBS (Dulbecco’s phosphate-buffered saline) and then suspending cell pellets with a tris buffer (250 mM sucrose; 10 mM Tris-HCl [pH 7.4]; proteinase inhibitor). The resulting mixture was centrifugally separated at 10,000 × g for 30 min to remove the cell debris remaining in the lower layer thereof, and was centrifugally separated at 100,000 × g for 60 min to obtain a microsomal membrane. Further, membrane fractions were resuspended by the tris buffer, and then stored at -80 °C.
The activity of DGAT1 was measured according to the reported method. Specifically, 0.0001 – 10 μΜ (final concentration, FC) of the test compounds were cultured at room temperature (25 °C) for 15 min with a […] of SF9 microsomal protein solution and 100 mM of MgCl2 solution, and were then further cultured at room temperature (25 °C) for 30 min after the addition of 100 μΜ (FC in 12.5% EtOH) of 1,2-dioleyl-sn-glycerol and 30 μΜ (final conc.) of [14]C-oleyl coenzyme A. The reaction was completed by the addition of 300 μL of a mixed solution of 2-propanol/heptane (7:1), and radioactive triglyceride was separated from an organic solvent layer by using 200 μL of heptane and 200 μL of a 0.1 M carbonate buffer (pH 9.5). The amount of triglyceride was measured by liquid scintillography (Perkin Elmer, USA) after mixing with an organic solvent and an equivalent amount of scintillation solvent (MicroScint-O, Perkin Elmer, USA). The effects of inhibiting DGAT1 were calculated as percent in comparison with a control material.
The activities of synthesised compounds were evaluated using SF9 insect cells expressing human DGAT-1[22]. A potent DGAT-1 inhibitor, LCQ-908 (2 or pradigastat) was used as a positive control. […] The calculated lowest energy conformation model of 14c provided that the distance between the terminal carboxylic acid and NH of urea was over 16 Å, which may result in reduced activity. […]

hACAT2 = target: T2, hACAT2 (Homo sapiens, UniProt O75908); assay: Enzymatic assay hACAT2; type: biochemical
T2 sequence (O75908 1-522): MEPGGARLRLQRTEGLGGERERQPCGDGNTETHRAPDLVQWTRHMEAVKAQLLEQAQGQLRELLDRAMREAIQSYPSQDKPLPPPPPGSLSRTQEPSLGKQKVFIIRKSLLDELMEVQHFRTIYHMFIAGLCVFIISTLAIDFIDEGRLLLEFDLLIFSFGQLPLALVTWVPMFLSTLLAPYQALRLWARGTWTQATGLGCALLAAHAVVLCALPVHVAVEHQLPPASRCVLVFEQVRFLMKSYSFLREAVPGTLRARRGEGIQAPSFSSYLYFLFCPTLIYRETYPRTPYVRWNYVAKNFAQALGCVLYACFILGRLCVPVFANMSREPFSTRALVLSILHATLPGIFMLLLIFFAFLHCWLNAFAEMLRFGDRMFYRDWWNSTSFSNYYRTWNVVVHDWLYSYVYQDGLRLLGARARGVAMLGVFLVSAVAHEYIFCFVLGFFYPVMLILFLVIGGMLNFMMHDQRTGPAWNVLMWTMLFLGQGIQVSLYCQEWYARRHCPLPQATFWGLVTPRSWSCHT
From the text: (§1) ACATs have sequence homology to DGAT-1 and play essential roles in cholesterol homeostasis. 17b was not explored in the enzymatic assays due to its poor pharmacokinetic profile.

hDGAT1 = target: T3, hDGAT1 (Homo sapiens, UniProt O75907); assay: Enzymatic assay hDGAT1; type: biochemical
T3 sequence (O75907 1-488): T1 sequence (O75907 1-488)
From the text: as §1

[3] = Tissue distribution in mice; type: in vivo; conditions: ICR mice, 30 mg/kg oral, n = 3
Protocol: In addition, tissue distribution of 17a was investigated. 17a was orally administered to mice at 30 mg/kg, and 2 was administrated as a positive control (Figure 5). […] Significant activity of 17a in the OLTT appeared to result from high concentration in the small intestine, even though bioavailability of 17a was not great in mice.
Figure 5. Tissue distribution of 17a in mice. 17a and 2 were orally administered to ICR mice at 30 mg/kg (n = 3). (a) AUC values of 17a and 2 in indicated tissues. […] Data represent mean value. (b) Tissue-to-plasma (T/P) ratio of 17a and 2. S.I.: small intestine, L.I.: large intestine.

hDGAT2 = target: T4, hDGAT2 (Homo sapiens, UniProt Q96PD7); assay: Enzymatic assay hDGAT2; type: biochemical
T4 sequence (Q96PD7 1-388): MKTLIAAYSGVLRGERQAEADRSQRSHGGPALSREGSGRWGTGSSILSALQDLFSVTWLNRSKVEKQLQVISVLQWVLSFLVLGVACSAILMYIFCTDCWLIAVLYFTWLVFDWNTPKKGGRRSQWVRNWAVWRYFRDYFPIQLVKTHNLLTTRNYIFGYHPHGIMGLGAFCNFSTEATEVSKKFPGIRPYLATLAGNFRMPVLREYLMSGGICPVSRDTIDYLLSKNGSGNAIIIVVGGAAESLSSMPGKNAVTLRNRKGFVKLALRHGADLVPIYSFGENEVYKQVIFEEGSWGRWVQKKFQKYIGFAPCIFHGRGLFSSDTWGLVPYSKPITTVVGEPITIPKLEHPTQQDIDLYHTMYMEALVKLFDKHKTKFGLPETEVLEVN
From the text: as §1

hACAT1 = target: T5, hACAT1 (Homo sapiens, UniProt P35610); assay: Enzymatic assay hACAT1; type: biochemical
T5 sequence (P35610 1-550): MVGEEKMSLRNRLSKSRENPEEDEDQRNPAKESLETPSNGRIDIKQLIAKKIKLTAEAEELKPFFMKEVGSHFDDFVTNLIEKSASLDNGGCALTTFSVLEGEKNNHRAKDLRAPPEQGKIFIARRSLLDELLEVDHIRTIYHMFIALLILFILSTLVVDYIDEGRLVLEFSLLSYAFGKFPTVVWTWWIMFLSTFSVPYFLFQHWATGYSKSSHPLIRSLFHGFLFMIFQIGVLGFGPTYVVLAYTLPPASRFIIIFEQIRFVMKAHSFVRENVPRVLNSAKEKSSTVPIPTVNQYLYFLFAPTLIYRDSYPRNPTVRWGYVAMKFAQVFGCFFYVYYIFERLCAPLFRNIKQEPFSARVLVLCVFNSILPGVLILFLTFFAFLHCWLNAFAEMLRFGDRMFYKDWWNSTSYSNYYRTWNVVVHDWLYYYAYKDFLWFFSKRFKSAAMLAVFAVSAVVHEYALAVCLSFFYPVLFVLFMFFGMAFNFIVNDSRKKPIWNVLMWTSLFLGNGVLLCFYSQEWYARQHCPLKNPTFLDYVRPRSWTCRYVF
From the text: as §1

| IC50 (hACAT2) [µM] | IC50 (hDGAT1) [µM] | IC50 (hDGAT2) [µM] | IC50 (hACAT1) [µM] | SMILES | bioavailability ([1]; oral 10 mg/kg vs iv 3 mg/kg) [%] | Cmax ([1]; oral 10 mg/kg, n = 3) [ng/mL] | half-life ([1]; oral 10 mg/kg, n = 3) [h] | AUC ([1]; oral 10 mg/kg, n = 3, read-out: AUC 0∼24) [ng·h/mL] | IC50 [2] [µM] | Tissue distribution (concentration levels in tissues) [3] |
| --- | --- | --- | --- | --- | --- | --- | --- | --- | --- | --- |
|  |  |  |  | O=C([O-])C[C@H]1CC[C@H](c2csc3c(-c4ccc(NC(=O)Nc5cccc(Cl)c5)cc4)ncnc32)CC1.[Na+] [Compound 17b, Sodium trans-2–(4–(4-(4-(3–(3-chlorophenyl)ureido)phenyl)thieno[3,2-d]pyrimidin-7-yl)cyclohexyl)acetate] | 0.7 | 74.8 | 5.2 | 234 | 0.089 |  |
| > 10 | 0.057 | > 10 | > 10 | O=C(O)C[C@H]1CC[C@H](c2ccc(-c3ccc(Nc4ccc(C(F)(F)F)nc4)cn3)cc2)CC1 [Compound 2, pradigastat, reference compound] |  |  |  |  | 0.157 | much high concentrations in the liver and large intestine |
